Source: patent publication US20070009533A1 (priority 2005, published 2007)

Biological target: T1, MDR1 function in K562/R7 cells (Homo sapiens, UniProt P08183)
T1 construct: endogenous in cells; host or cells: K562/R7 cells
Type: cell-based
Procedure: The loaded and washed cells were cultured at 37° C. in 0.5 ml lacking or containing the indicated concentrations of drug for the indicated amount of time. Control cells were placed on ice immediately after loading and, as indicated by the symbol to the far right at MFI=1172, the cells had been loaded with dye.

T1 sequence (P08183 whole entry): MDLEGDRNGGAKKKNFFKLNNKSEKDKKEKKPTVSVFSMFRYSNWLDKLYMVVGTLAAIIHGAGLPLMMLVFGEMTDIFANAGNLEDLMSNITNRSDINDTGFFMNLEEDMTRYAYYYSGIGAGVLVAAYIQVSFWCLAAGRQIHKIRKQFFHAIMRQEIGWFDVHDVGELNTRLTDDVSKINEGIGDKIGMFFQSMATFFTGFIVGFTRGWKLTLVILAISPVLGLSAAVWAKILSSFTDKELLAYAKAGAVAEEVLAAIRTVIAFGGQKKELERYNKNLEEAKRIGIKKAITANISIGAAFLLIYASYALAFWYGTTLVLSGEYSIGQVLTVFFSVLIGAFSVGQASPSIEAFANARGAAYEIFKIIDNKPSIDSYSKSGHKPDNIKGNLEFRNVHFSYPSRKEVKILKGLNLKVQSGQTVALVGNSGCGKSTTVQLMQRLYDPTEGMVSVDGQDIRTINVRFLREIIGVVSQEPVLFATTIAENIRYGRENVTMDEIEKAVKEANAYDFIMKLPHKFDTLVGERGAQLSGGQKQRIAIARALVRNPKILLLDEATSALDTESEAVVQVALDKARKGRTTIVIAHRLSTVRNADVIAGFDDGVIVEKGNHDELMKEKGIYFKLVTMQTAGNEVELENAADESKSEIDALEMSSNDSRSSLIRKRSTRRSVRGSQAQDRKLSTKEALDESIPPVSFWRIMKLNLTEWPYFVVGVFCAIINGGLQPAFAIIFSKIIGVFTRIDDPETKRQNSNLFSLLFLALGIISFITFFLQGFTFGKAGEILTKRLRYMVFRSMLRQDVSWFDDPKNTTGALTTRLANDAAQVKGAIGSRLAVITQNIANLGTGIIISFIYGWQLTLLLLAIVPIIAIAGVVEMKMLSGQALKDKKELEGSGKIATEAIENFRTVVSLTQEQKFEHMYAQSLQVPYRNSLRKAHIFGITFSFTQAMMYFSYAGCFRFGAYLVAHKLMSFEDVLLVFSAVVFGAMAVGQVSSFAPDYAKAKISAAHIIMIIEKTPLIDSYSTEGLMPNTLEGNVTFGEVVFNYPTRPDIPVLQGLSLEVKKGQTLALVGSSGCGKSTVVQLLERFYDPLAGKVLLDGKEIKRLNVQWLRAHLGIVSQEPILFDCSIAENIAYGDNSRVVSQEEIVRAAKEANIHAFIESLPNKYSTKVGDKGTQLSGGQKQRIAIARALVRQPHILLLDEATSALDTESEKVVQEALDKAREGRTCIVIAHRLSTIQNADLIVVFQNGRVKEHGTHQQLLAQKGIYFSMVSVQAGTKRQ

## O[C@@H](COc1cccc2ncccc12)CN1CCN([C@@H]2c3ccccc3[C@@H]3[C@H](c4ccccc42)C3(F)F)CC1 [zosuquidar]
  effect on dye release during efflux incubation: inhibited dye release in a concentration-dependent manner
